# Experimental data reported in patent US6409995B1, “Use of amino-substituted hydroxybenzophenones as photostable UV filters in cosmetic and pharmaceutical preparations” (BASF Aktiengesellschaft, priority 1999, dated 2002).
# Key:
# [1] = UV absorption of the compounds (absorption maximum and specific absorbance); format: physicochemical; conditions: for λmax: UV absorption maximum; for E^11: specific absorbance at λmax
# [2] = used alone or in combination with UV-B filters; cited from earlier work
SMILES,λmax [1],E^11 [1],melting point,photochemical stability [2]
"CCN(CC)c1ccc(C(=O)c2ccccc2C(=O)OC)c(O)c1 [Example 1, Methyl 2-(4-diethylamino-2-hydroxybenzoyl)benzoate]",354 nm,1173,–,–
"CCN(CC)c1ccc(C(=O)c2ccccc2)c(O)c1 [Example 2, 4-diethylamino-2-hydroxyphenyl phenyl ketone]",359 nm,1280,46 to 48 °C,–
"COc1ccc(C(=O)CC(=O)c2ccc(C(C)(C)C)cc2)cc1 [PARSOL 1789, 4-(1,1-dimethylethyl)-4′-methoxydibenzoylmethane]",–,–,–,does not have sufficient photochemical stability

# Now from value to compound, other results behind:
λmax [1],E^11 [1],melting point,SMILES,photochemical stability [2]
355 nm,1167,203 °C,O=C(O)c1ccccc1C(=O)c1ccc(N2CCCC2)cc1O [Example 3],–
355 nm,1179,164 °C,COC(=O)c1ccccc1C(=O)c1ccc(N2CCCC2)cc1O [Example 4],–
